Where no end group is shown, it is not given here. red fluorescent dye = not defined here
Assays:
[1] = target: T1, JAK3 (Homo sapiens, UniProt P52333); assay: In vitro kinase assay JAK3; type: biochemical; conditions: ten times higher concentration than 0.1 μM
T1 construct: endogenous in cells
T1 sequence (P52333 1-1124): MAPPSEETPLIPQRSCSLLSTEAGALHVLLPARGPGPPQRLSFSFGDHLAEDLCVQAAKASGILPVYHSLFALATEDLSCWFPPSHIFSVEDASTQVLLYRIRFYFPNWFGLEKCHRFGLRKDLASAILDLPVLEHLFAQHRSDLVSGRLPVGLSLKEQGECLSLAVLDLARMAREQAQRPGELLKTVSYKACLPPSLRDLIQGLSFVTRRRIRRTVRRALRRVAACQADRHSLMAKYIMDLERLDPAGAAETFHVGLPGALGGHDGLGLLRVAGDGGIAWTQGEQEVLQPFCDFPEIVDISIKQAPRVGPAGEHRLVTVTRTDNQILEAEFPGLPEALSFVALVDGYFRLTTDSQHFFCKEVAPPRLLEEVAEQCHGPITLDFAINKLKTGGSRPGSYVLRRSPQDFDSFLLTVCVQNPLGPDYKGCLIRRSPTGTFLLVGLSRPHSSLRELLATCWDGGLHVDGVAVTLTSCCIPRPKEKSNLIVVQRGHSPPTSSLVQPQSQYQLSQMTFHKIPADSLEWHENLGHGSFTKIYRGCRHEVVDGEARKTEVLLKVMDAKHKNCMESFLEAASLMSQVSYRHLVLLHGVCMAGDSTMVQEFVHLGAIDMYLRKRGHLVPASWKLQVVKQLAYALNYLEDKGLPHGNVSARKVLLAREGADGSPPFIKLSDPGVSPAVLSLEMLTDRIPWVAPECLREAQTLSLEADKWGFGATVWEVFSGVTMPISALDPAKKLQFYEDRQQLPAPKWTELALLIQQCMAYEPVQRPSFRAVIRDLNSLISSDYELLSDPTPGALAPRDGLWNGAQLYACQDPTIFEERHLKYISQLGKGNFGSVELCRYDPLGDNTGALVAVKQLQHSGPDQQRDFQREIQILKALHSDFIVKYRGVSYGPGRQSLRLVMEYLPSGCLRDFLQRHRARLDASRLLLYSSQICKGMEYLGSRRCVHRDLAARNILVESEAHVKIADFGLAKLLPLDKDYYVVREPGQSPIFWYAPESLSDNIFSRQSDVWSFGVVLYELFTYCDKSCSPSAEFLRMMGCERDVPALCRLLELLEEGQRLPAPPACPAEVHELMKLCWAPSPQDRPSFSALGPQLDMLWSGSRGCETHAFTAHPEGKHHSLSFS
Description: As a specific substrate, the phosphorylation level of GSK-3[…] at Ser-9 was also evaluated. […] The decrease was specific to the AKT phosphorylation site on GSK-3[…] at Ser-9, since a change in the phosphorylation level of GSK-3[…] at Tyr-216 or GSK-3[…] at Tyr-279 was not observed. Moreover, the in vivo reduction of the phosphorylation of AKT substrates was more obvious at the injection site, since a significant change in the phosphorylation of AKT substrates in the frontal cortex or cerebellum between the two hemispheres was not observed. […] To test the specificity/selectivity of ZaTa as the inhibitor of AKT1 versus the other major kinases, a series of in vitro kinase assays was performed at IC50 for AKT1 and at ten times higher concentrations. A panel of the following 32 kinases was first tested in vitro using the active form of each kinase and a specific substrate: AKT2, AKT3, PKA, PKC[…], PKC, PI3K[…], PI3K[…], PI3K, SGK, PAK2, PAK3, SAPK2/p38, Abl, CaMKII, CDK1/cyclinB, CDK5/p35, CK1, CK2, CSK, GSK3[…], GSK3[…], JNK1[…]1, MAPK1, p70S6K, PDGFR[…], PDGFR[…], PDK1, PKG1[…], TrkB, JAK2, JAK3, and Syk. […] However, at ten times higher concentration, ZaTa inhibited AKT2 (63%), PI3K[…] (72%), p70S6K (64%), SGK (73%), PAK3 (83%), JAK3 (79%), TrkB (84%), and Abl (42%). […]

[2] = test system: PKA and CDK5; assay: In vivo phosphorylation of DARPP-32 at Thr-34 (PKA site) and Thr-75 (CDK5 site); set-up: species or system mouse; conditions: striatum
Description: As a striatal specific substrate for PKA and CDK5, the phosphorylation level of DARPP-32 was determined at Thr-34 (the PKA site) or at Thr-75 (the CDK5 site)(Huang, et al. (1999) supra).

[3] = target: TrkB (Homo sapiens, UniProt Q16620); assay: Cell-based kinase assay, phosphorylation of intracellular substrate (Tyr-783 PLC)
Description: As a specific substrate, the phosphorylation level of GSK-3[…] at Ser-9 was also evaluated. […] The decrease was specific to the AKT phosphorylation site on GSK-3[…] at Ser-9, since a change in the phosphorylation level of GSK-3[…] at Tyr-216 or GSK-3[…] at Tyr-279 was not observed. Moreover, the in vivo reduction of the phosphorylation of AKT substrates was more obvious at the injection site, since a significant change in the phosphorylation of AKT substrates in the frontal cortex or cerebellum between the two hemispheres was not observed. […] To test the specificity/selectivity of ZaTa as the inhibitor of AKT1 versus the other major kinases, a series of in vitro kinase assays was performed at IC50 for AKT1 and at ten times higher concentrations. […]
Phosphorylation sites for kinases analyzed herein included Ser-235/236 S6 (a substrate for p70S6K), Tyr-207 CRKL (a substrate for Abl; Zipfel, et al. (2004) supra), Ser-241 PDK1 (a substrate for PI3K), Tyr-1022/1023 JAK1 (a substrate for JAK3; Wang, et al. (2003) supra), Ser-421 Huntingtin (a substrate for SGK; Rangone, et al. (2004) supra), Tyr-783 PLC (a substrate for TrkB; Middlemas, et al. (1994) supra), and Ser-338 cRaf (a substrate for PAK3; King, et al. (1998) supra).

Substance | inhibition of JAK3 [1] | phosphorylation of DARPP-32 at Thr-34 or Thr-75 [2] | inhibition of TrkB in cells [3]
AKRVKGRTWTLCGTPEY [ZaTa] | 79% | did not cause any significant change | 
labeled ZaTa: ZaTa peptide labeled with a red fluorescent dye at its N-terminus ({red fluorescent dye}-AKRVKGRTWTLCGTPEY; reading uncertain) |  |  | did not cause inhibition

— US8541670B2, “Compositions and methods for inhibiting tumor cell growth” (priority 2007, dated 2013)
